From patent US12171224B2, “Choline salt and ammonium-free adjuvants for water conditioning and agricultural formulations” (SPECIALTY OPERATIONS FRANCE, priority 2015, dated 2024)

Key:
Details in all cases: 1000 ppm water, after 21 days
Ivyleaf morning glory = test: Greenhouse weed control study, ivyleaf morning glory
Description: (§1) A greenhouse study was conducted to evaluate efficacy benefits of several candidates.
(§2) Procedure: Product application was made using a DeVries spray booth calibrated to 10 gpa, 40 psi with flat-fan AIXR11002 nozzle. Test plants were placed in a certain zone (Zone 3) of research greenhouse on a wire-mesh raised bench and arranged in a randomized complete block design. […] Environmental conditions averaged high temperature 87° F. to low temperature of 75° F. during trial dates. Average humidity levels ranged from 40% to 90%. Test plants received natural lighting for duration of trial. Test plants were soil watered every twenty-four (24) hours as needed.
(§3) Weeds were evaluated for percent control at 3, 7, 14, and 21-days following application.
(§4) Rating scale used; 0 indicating no control/injury up to 100 indicating complete control of weed species as compared to the untreated check.

Velvet leaf = test: Greenhouse weed control study, velvetleaf
Description: as §1, §2, §3, §4

Weeds = test: Greenhouse weed control study, average over the four weeds
Description: as §1, §2, §3, §4

Yellow foxtail = test: Greenhouse weed control study, yellow foxtail
Description: as §1, §2, §3, §4

Common barnyardgrass = test: Greenhouse weed control study, common barnyardgrass
Description: as §1, §2, §3, §4

[1] = (55% soln) 0.18%, use rate 0.18 % w/w
[2] = (55% soln) 0.45%, use rate 0.45 % w/w
[3] = (80% liquid) 1%, use rate 1 % w/w

N.N.O=S(=O)(O)O [Ammonium Sulfate]
Ivyleaf morning glory percent control (Ivyleaf morning glory; 1%, use rate 2.5 % w/w): 20%
Ivyleaf morning glory percent control (Ivyleaf morning glory; 2%, use rate 5 % w/w): 18.3%
Velvet leaf percent control (Velvet leaf; 1%, use rate 2.5 % w/w): 18.3%
Velvet leaf percent control (Velvet leaf; 2%, use rate 5 % w/w): 18.3%
Average percent control (Weeds; 1%, use rate 2.5 % w/w): 39.575%
Average percent control (Weeds; 2%, use rate 5 % w/w): 41.65%
Yellow foxtail percent control (Yellow foxtail; 1%, use rate 2.5 % w/w): 40%
Yellow foxtail percent control (Yellow foxtail; 2%, use rate 5 % w/w): 40%
Common barnyardgrass percent control (Common barnyardgrass; 1%, use rate 2.5 % w/w): 80%
Common barnyardgrass percent control (Common barnyardgrass; 2%, use rate 5 % w/w): 90%

C[N+](C)(C)CCO.O=C([O-])CC(O)(CC(=O)O)C(=O)O [Choline Dihydrogen Citrate]
Ivyleaf morning glory percent control (Ivyleaf morning glory; 0.4%, use rate 0.4 % w/w): 26.7%
Velvet leaf percent control (Velvet leaf; 0.4%, use rate 0.4 % w/w): 20%
Average percent control (Weeds; 0.4%, use rate 0.4 % w/w): 42.5%
Yellow foxtail percent control (Yellow foxtail; 0.4%, use rate 0.4 % w/w): 40%
Common barnyardgrass percent control (Common barnyardgrass; 0.4%, use rate 0.4 % w/w): 83.3%

O=C(O)CC(O)(CC(=O)O)C(=O)O [Citric acid]
Ivyleaf morning glory percent control (Ivyleaf morning glory; [1]): 16.7%
Ivyleaf morning glory percent control (Ivyleaf morning glory; [2]): 20%
Velvet leaf percent control (Velvet leaf; [1]): 15%
Velvet leaf percent control (Velvet leaf; [2]): 15%
Average percent control (Weeds; [1]): 37.925%
Average percent control (Weeds; [2]): 36.25%
Yellow foxtail percent control (Yellow foxtail; [1]): 36.7%
Yellow foxtail percent control (Yellow foxtail; [2]): 50%
Common barnyardgrass percent control (Common barnyardgrass; [1]): 83.3%
Common barnyardgrass percent control (Common barnyardgrass; [2]): 60%

Choline bicarbonate
Ivyleaf morning glory percent control (Ivyleaf morning glory; [3]): 10%
Velvet leaf percent control (Velvet leaf; [3]): 15%
Average percent control (Weeds; [3]): 34.575%
Yellow foxtail percent control (Yellow foxtail; [3]): 83.3%
Common barnyardgrass percent control (Common barnyardgrass; [3]): 30%
